Data reported in PubChem BioAssay AID248 (DTP/NCI, 2004).
“And” between values parts separate entries of the source, which are not always exact repeats. Equal values may be shown once. Inconclusive results and toxic doses are left out. No stated cut-off is given here; in the data, active means T/C of 150% or more; inactive means T/C below 125%.

Tested on: L1210 leukemia ip in BDF1 mice, survival T/C
Assay: NCI In Vivo Anticancer Drug Screen. Data for tumor model L1210 Leukemia (intraperitoneal) in B6D2F1 (BDF1) mice
Conditions: endpoint: mean survival time, higher = longer survival
Outline: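 Value reflects the ratio of survival in compound-treated mice to survival in vehicle-treated controls, with both groups carrying the same transplanted tumor.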

[1] = dose: 100.0 mg/kg/injection, schedule: Q01DX001 (ip), vehicle: saline with Tween-80
[2] = dose: 200.0 mg/kg/injection, schedule: Q01DX001 (ip), vehicle: saline with Tween-80
[3] = dose: 400.0 mg/kg/injection, schedule: Q01DX001 (ip), vehicle: saline with Tween-80
[4] = dose: 100.0 mg/kg/injection, schedule: Q01DX009 (ip), vehicle: saline with Tween-80
[5] = dose: 200.0 mg/kg/injection, schedule: Q01DX009 (ip), vehicle: saline with Tween-80
[6] = dose: 400.0 mg/kg/injection, schedule: Q01DX009 (ip), vehicle: saline with Tween-80

Measured: T/C

Cc1nc(N(C)C)[nH]c(=O)c1CCCNc1ccccc1
inactive: [1] 111 % of control | [2] 96 % of control | [3] 100 % of control

Oc1ccc(C2=CSC3=NCCN23)cc1
inactive: dose: 5.0 mg/kg/injection, schedule: Q01DX001 (ip), vehicle: saline 94 % of control | dose: 10.0 mg/kg/injection, schedule: Q01DX001 (ip), vehicle: saline 93 % of control | dose: 20.0 mg/kg/injection, schedule: Q01DX001 (ip), vehicle: saline 93 % of control | dose: 40.0 mg/kg/injection, schedule: Q01DX001 (ip), vehicle: saline 96 % of control | dose: 80.0 mg/kg/injection, schedule: Q01DX001 (ip), vehicle: saline 104 % of control

CCOC(=O)c1c[nH]c2cc(OCC(C)C)c(OCC(C)C)cc2c1=O
inactive: [1] 104 % of control | [2] 100 % of control | [3] 86 % of control

C/C(=N/OC(=O)N(C)C)c1cccc(Cl)c1
inactive: dose: 44.0 mg/kg/injection, schedule: Q01DX001 (ip), vehicle: saline 95 % of control and 103 % of control | dose: 66.0 mg/kg/injection, schedule: Q01DX001 (ip), vehicle: saline 95 % of control and 101 % of control | dose: 100.0 mg/kg/injection, schedule: Q01DX001 (ip), vehicle: saline 94 % of control and 95 % of control | dose: 150.0 mg/kg/injection, schedule: Q01DX001 (ip), vehicle: saline 101 % of control and 112 % of control | dose: 200.0 mg/kg/injection, schedule: Q01DX001 (ip), vehicle: saline 97 % of control | dose: 400.0 mg/kg/injection, schedule: Q01DX001 (ip), vehicle: saline 103 % of control

CC(C(=O)O)C(NC(=O)OCc1ccccc1)C(=O)O (centres undefined)
inactive: dose: 100.0 mg/kg/injection, schedule: Q01DX009 (ip), vehicle: other 93 % of control | dose: 100.0 mg/kg/injection, schedule: Q04DX003 (ip), vehicle: other 99 % of control | dose: 200.0 mg/kg/injection, schedule: Q01DX009 (ip), vehicle: other 91 % of control | dose: 200.0 mg/kg/injection, schedule: Q04DX003 (ip), vehicle: other 99 % of control | dose: 400.0 mg/kg/injection, schedule: Q01DX009 (ip), vehicle: other 98 % of control | dose: 400.0 mg/kg/injection, schedule: Q04DX003 (ip), vehicle: other 98 % of control

CC(=O)OC(C(=O)N(c1ccccc1)c1ccccc1)c1ccccc1 (centres undefined)
inactive: [4] 98 % of control | [5] 95 % of control | [6] 93 % of control

O=C1OC(=O)c2ccc([N+](=O)[O-])c3c([N+](=O)[O-])ccc1c23
inactive: [4] 88 % of control | [5] 95 % of control | [6] 91 % of control

Cc1ccc(-c2c(O)c(Br)c(-c3ccc(C)cc3C)c(O)c2Br)c(C)c1
inactive: dose: 100.0 mg/kg/injection, schedule: Q04DX003 (ip), vehicle: saline with Tween-80 98 % of control | dose: 200.0 mg/kg/injection, schedule: Q04DX003 (ip), vehicle: saline with Tween-80 93 % of control | dose: 400.0 mg/kg/injection, schedule: Q04DX003 (ip), vehicle: saline with Tween-80 93 % of control

O=C(O)c1cc(S(=O)(=O)F)ccc1O
inactive: dose: 100.0 mg/kg/injection, schedule: Q04DX002 (ip), vehicle: saline with Tween-80 101 % of control | dose: 200.0 mg/kg/injection, schedule: Q04DX002 (ip), vehicle: saline with Tween-80 101 % of control | dose: 400.0 mg/kg/injection, schedule: Q04DX002 (ip), vehicle: saline with Tween-80 104 % of control

CC(=O)N1Cc2ccc(C=O)n2Cc2cc3c(cc21)OCO3
inactive: dose: 25.0 mg/kg/injection, schedule: Q04DX002 (ip), vehicle: Klucel (hydroxypropylcellulose) (HPC) 96 % of control | dose: 50.0 mg/kg/injection, schedule: Q04DX002 (ip), vehicle: Klucel (hydroxypropylcellulose) (HPC) 104 % of control | dose: 100.0 mg/kg/injection, schedule: Q04DX002 (ip), vehicle: Klucel (hydroxypropylcellulose) (HPC) 110 % of control

CCCC(=O)N(C(=O)CCC)c1cc2c3c(c1)CCCN3CCC2
inactive: dose: 12.5 mg/kg/injection, schedule: Q04DX003 (ip), vehicle: Klucel (hydroxypropylcellulose) (HPC) 96 % of control | dose: 25.0 mg/kg/injection, schedule: Q01DX009 (ip), vehicle: Klucel (hydroxypropylcellulose) (HPC) 95 % of control | dose: 25.0 mg/kg/injection, schedule: Q04DX003 (ip), vehicle: Klucel (hydroxypropylcellulose) (HPC) 93 % of control | dose: 50.0 mg/kg/injection, schedule: Q01DX009 (ip), vehicle: Klucel (hydroxypropylcellulose) (HPC) 92 % of control | dose: 50.0 mg/kg/injection, schedule: Q04DX003 (ip), vehicle: Klucel (hydroxypropylcellulose) (HPC) 95 % of control | dose: 100.0 mg/kg/injection, schedule: Q04DX003 (ip), vehicle: saline 93 % of control
